Test results published in the supplement of paper PMC11061612.

Columns and labels:
Trametinib = compound: CC(=O)Nc1cccc(-n2c(=O)n(C3CC3)c(=O)c3c(Nc4ccc(I)cc4F)n(C)c(=O)c(C)c32)c1 [Trametinib]; conditions: max 1 µM
Outline: (§1)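 In 1536-well plates, cancer cell lines in 7.5 μl DMEM/F12 or RPMI with 10% FBS spent 24 hours at 37°C and 5% CO2 and were then dosed for 72 hours with final DMSO typically 0.2%. Viability was read by CellTiter-Glo 2.0 luminescence and scaled between blank-well and DMSO-well means. The single-agent IC50 was fitted from dose responses using a logistic curve in a non-linear mixed effects model, and that logistic curve had two parameters.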

SG3199 = compound: CC1=CN2[C@@H](C1)C=NC3=CC(=C(C=C3C2=O)OC)OCCCCCOC4=C(C=C5C(=C4)N=C[C@@H]6CC(=CN6C5=O)C)OC [SG3199]; conditions: max 0.001 µM
Outline: as §1

AZD8186 = compound: C[C@@H](Nc1cc(F)cc(F)c1)c1cc(C(=O)N(C)C)cc2c(=O)cc(N3CCOCC3)oc12 [AZD8186]; conditions: max 3 µM
Outline: as §1

AZD0156 = compound: CN(C)CCCOc1ccc(-c2ccc3ncc4c(c3c2)n(C2CCOCC2)c(=O)n4C)cn1 [AZD0156]
Outline: as §1

Capivasertib = compound: C1CN(CCC1(C(=O)N[C@@H](CCO)C2=CC=C(C=C2)Cl)N)C3=NC=NC4=C3C=CN4 [Capivasertib]
Outline: as §1

Doxorubicin = compound: COc1cccc2c1C(=O)c1c(O)c3c(c(O)c1C2=O)C[C@@](O)(C(=O)CO)C[C@@H]3O[C@H]1C[C@H](N)[C@H](O)[C@H](C)O1 [Doxorubicin]; conditions: max 1 µM
Outline: as §1

AZD2811 = compound: CCN(CCO)CCCOc1ccc2c(Nc3cc(CC(=O)Nc4cccc(F)c4)[nH]n3)ncnc2c1 [AZD2811]; conditions: max 1 µM
Outline: as §1

AZD5991 = compound: Cc1c2c(nn1C)CSCc1cc(n(C)n1)CSc1cc(c3ccccc3c1)OCCCc1c(C(=O)O)n(C)c3c-2c(Cl)ccc13 [AZD5991]; conditions: max 1 µM
Outline: as §1

AZD4320 = compound: CN(CC[C@H](CSC1=CC=CC=C1)NC2=C(C=C(C=C2)S(=O)(=O)NC(=O)C3=CC=C(C=C3)N4CCC(CC4)[C@H](C5=CC=CC=C5C6=CC=C(C=C6)Cl)O)S(=O)(=O)C(F)(F)F)CCO [AZD4320]; conditions: max 1 µM
Outline: as §1

Olaparib = compound: O=C(c1cc(Cc2n[nH]c(=O)c3ccccc23)ccc1F)N1CCN(C(=O)C2CC2)CC1 [Olaparib]; conditions: max 10 µM
Outline: as §1

Prexasertib = compound: COc1cccc(OCCCN)c1-c1cc(Nc2cnc(C#N)cn2)n[nH]1 [Prexasertib]; conditions: max 1 µM
Outline: as §1

Taselisib = compound: Cc1nc(-c2cn3c(n2)-c2ccc(-c4cnn(C(C)(C)C(N)=O)c4)cc2OCC3)n(C(C)C)n1 [Taselisib]; conditions: max 10 µM
Outline: as §1

Selumetinib = compound: Cn1cnc2c(F)c(Nc3ccc(Br)cc3Cl)c(C(=O)NOCCO)cc21 [Selumetinib]
Outline: as §1

SN-38 = compound: CCc1c2c(nc3ccc(O)cc13)-c1cc3c(c(=O)n1C2)COC(=O)[C@]3(O)CC [SN-38]; conditions: max 0.3 µM
Outline: as §1

Alisertib = compound: COc1cc(Nc2ncc3c(n2)-c2ccc(Cl)cc2C(c2c(F)cccc2OC)=NC3)ccc1C(=O)O [Alisertib]; conditions: max 10 µM
Outline: as §1

AZD1775 = compound: C=CCn1c(=O)c2cnc(Nc3ccc(N4CCN(C)CC4)cc3)nc2n1-c1cccc(C(C)(C)O)n1 [AZD1775]
Outline: as §1

AZD7648 = compound: Cc1cc2ncnn2cc1Nc1ncc2c(n1)n(C1CCOCC1)c(=O)n2C [AZD7648]; conditions: max 10 µM
Outline: as §1

AZD6738 = compound: C[C@@H]1COCCN1C2=NC(=NC(=C2)C3(CC3)[S@](=N)(=O)C)C4=C5C=CNC5=NC=C4 [AZD6738]; conditions: max 10 µM
Outline: as §1

Venetoclax = compound: CC1(C)CCC(CN2CCN(c3ccc(C(=O)NS(=O)(=O)c4ccc(NCC5CCOCC5)c([N+](=O)[O-])c4)c(Oc4cnc5[nH]ccc5c4)c3)CC2)=C(c2ccc(Cl)cc2)C1 [Venetoclax]; conditions: max 1 µM
Outline: as §1

AZD1390 = compound: CC(C)n1c(=O)n(C)c2cnc3cc(F)c(-c4ccc(OCCCN5CCCCC5)nc4)cc3c21 [AZD1390]; conditions: max 0.3 µM
Outline: as §1

AZD5153 = compound: COc1nnc2ccc(N3CCC(c4ccc(OCCN5CCN(C)C(=O)[C@H]5C)cc4)CC3)nn12 [AZD5153]; conditions: max 1 µM
Outline: as §1

Gefitinib = compound: COc1cc2ncnc(Nc3ccc(F)c(Cl)c3)c2cc1OCCCN1CCOCC1 [Gefitinib]; conditions: max 10 µM
Outline: as §1

Crizotinib = compound: C[C@@H](Oc1cc(-c2cnn(C3CCNCC3)c2)cnc1N)c1c(Cl)ccc(F)c1Cl [Crizotinib]; conditions: max 10 µM
Outline: as §1

Lapatinib = compound: CS(=O)(=O)CCNCc1ccc(-c2ccc3ncnc(Nc4ccc(OCc5cccc(F)c5)c(Cl)c4)c3c2)o1 [Lapatinib]; conditions: max 10 µM
Outline: as §1

Dasatinib = compound: CC1=C(C(=CC=C1)Cl)NC(=O)C2=CN=C(S2)NC3=CC(=NC(=N3)C)N4CCN(CC4)CCO [Dasatinib]; conditions: max 2 µM
Outline: as §1

Savolitinib = compound: C[C@@H](c1ccc2nccn2c1)n1nnc2ncc(-c3cnn(C)c3)nc21 [Savolitinib]; conditions: max 1 µM
Outline: as §1

Palbociclib = compound: CC(=O)c1c(C)c2cnc(Nc3ccc(N4CCNCC4)cn3)nc2n(C2CCCC2)c1=O [Palbociclib]; conditions: max 10 µM
Outline: as §1

Row | Cell Line | IC50, cell viability 72 h (Trametinib) [nM] | IC50, cell viability 72 h (SG3199) [nM] | IC50, cell viability 72 h (AZD8186) [nM] | IC50, cell viability 72 h (AZD0156; max 1 µM) [nM] | IC50, cell viability 72 h (Capivasertib; max 3 µM) [nM] | IC50, cell viability 72 h (Doxorubicin) [nM] | IC50, cell viability 72 h (AZD2811) [nM] | IC50, cell viability 72 h (AZD5991) [nM] | IC50, cell viability 72 h (AZD4320) [nM] | IC50, cell viability 72 h (Olaparib) [nM] | IC50, cell viability 72 h (Prexasertib) [nM] | IC50, cell viability 72 h (Taselisib) [nM] | IC50, cell viability 72 h (Selumetinib; max 3 µM) [nM] | IC50, cell viability 72 h (SN-38) [nM] | IC50, cell viability 72 h (Alisertib) [nM] | IC50, cell viability 72 h (AZD1775; max 1 µM) [nM] | IC50, cell viability 72 h (AZD7648) [nM] | IC50, cell viability 72 h (AZD6738) [nM] | IC50, cell viability 72 h (Venetoclax) [nM] | IC50, cell viability 72 h (AZD1390) [nM] | IC50, cell viability 72 h (AZD5153) [nM] | IC50, cell viability 72 h (Gefitinib) [nM] | IC50, cell viability 72 h (AZD0156; max 3 µM) [nM] | IC50, cell viability 72 h (Capivasertib; max 10 µM) [nM] | IC50, cell viability 72 h (Crizotinib) [nM] | IC50, cell viability 72 h (Lapatinib) [nM] | IC50, cell viability 72 h (Dasatinib) [nM] | IC50, cell viability 72 h (Savolitinib) [nM] | IC50, cell viability 72 h (Palbociclib) [nM] | IC50, cell viability 72 h (Selumetinib; max 10 µM) [nM] | IC50, cell viability 72 h (AZD1775; max 3 µM) [nM]
1 | NMC-G1 (Low Grade Glioma) | > 1000 | > 1 | > 3000 | > 1000 | > 3000 | > 1000 | > 1000 | > 1000 | > 1000 | > 10000 | > 1000 | > 10000 | > 3000 | > 300 | > 10000 | > 1000 | > 10000 | > 10000 | > 1000 |  |  |  |  |  |  |  |  |  |  |  | 
2 | OVCAR-3 (Ovarian Carcinoma) | > 1000 | > 1 | > 3000 |  |  | > 1000 | > 1000 | > 1000 | > 1000 | > 10000 | 198 | 5630 |  | 231 | > 10000 |  | > 10000 | > 10000 | > 1000 | > 300 | 475 | > 10000 | > 3000 | > 10000 | > 10000 | > 10000 | > 2000 | > 1000 | > 10000 | > 10000 | 1600
3 | P30-OHK (B-Lymphoblastic Leukemia) | > 1000 | > 1 | > 3000 |  |  | 202 | 37.9 | 835 | 173 | > 10000 | 20.5 | 6340 |  | 9.37 | 231 |  | > 10000 | 3470 | > 1000 | > 300 | 63.3 | > 10000 | > 3000 | > 10000 | 2780 | > 10000 | > 2000 | > 1000 | > 10000 | > 10000 | 660
4 | TUR (Acute Myeloid Leukemia) | > 1000 | > 1 | > 3000 |  |  | 626 | > 1000 |  | > 1000 | > 10000 | 16.4 | 1210 |  | 22.9 | > 10000 |  | > 10000 | 3440 | > 1000 | > 300 | > 1000 | > 10000 | > 3000 | 2860 | > 10000 | > 10000 | > 2000 | > 1000 | > 10000 | > 10000 | 575
